Activity calls are given as the source filed them. No cut-off for these calls is given here.
Columns and labels:
Mus musculus [1] = experiment: Antiarthritic activity in collagen-induced rheumatoid arthritis DBA/1 mouse model assessed as reduction in incidence rate at 15 mg/kg, po BID administered for 14 days starting from 7 days before immunization to 21 days after immunization and measured on day 34 post immunization; type: functional; parameters: scale not given: the % may be the effect or the level left; settings: time 14 day
Mus musculus [2] = experiment: Antiarthritic activity in collagen-induced rheumatoid arthritis DBA/1 mouse model assessed as inhibition rate at 15 mg/kg, po BID administered for 14 days starting from 7 days before immunization to 21 days after immunization and measured on day 41 post immunization; type: functional; settings: DBA/1, 336 h, time 14 day
[3] = target: Cytoplasmic tyrosine-protein kinase BMX (Homo sapiens) (UniProt P51813); experiment: Inhibition of human BMX assessed as residual activity at 30 uM relative to control
[4] = target: Receptor-type tyrosine-protein kinase FLT3 (Homo sapiens) (UniProt P36888); experiment: Inhibition of human FLT3 assessed as residual activity at 30 uM relative to control
[5] = target: Glycogen synthase kinase-3 beta (Homo sapiens) (UniProt P49841); experiment: Inhibition of human GSK3beta assessed as residual activity at 30 uM relative to control
[6] = target: Interleukin-1 receptor-associated kinase 4 (Homo sapiens) (UniProt Q9NWZ3); experiment: Inhibition of human IRAK4 assessed as residual activity at 30 uM relative to control
[7] = target: Tyrosine-protein kinase SYK (Homo sapiens) (UniProt P43405); experiment: Inhibition of human SYK assessed as residual activity at 30 uM relative to control
Homo sapiens = organism: Homo sapiens; experiment: Inhibition of human CDK1/Cyclin B assessed as residual activity at 30 uM relative to control
[8] = target: CDK2/Cyclin A2 (Homo sapiens) (UniProt P24941+P20248); experiment: Inhibition of human CDK2/Cyclin A assessed as residual activity at 30 uM relative to control; type: protein-complex assay
[9] = target: Serine/threonine-protein kinase Chk1 (Homo sapiens) (UniProt O14757); experiment: Inhibition of human CHK1 assessed as residual activity at 30 uM relative to control
[10] = target: Mitogen-activated protein kinase 8 (Homo sapiens) (UniProt P45983); experiment: Inhibition of human JNK1-alpha1 assessed as residual activity at 30 uM relative to control
[11] = target: Serine/threonine-protein kinase MAK (Homo sapiens) (UniProt P20794); experiment: Inhibition of human MAK assessed as residual activity at 30 uM relative to control
[12] = target: Mitogen-activated protein kinase 1 (Homo sapiens) (UniProt P28482); experiment: Inhibition of human MAPK1 assessed as residual activity at 30 uM relative to control
[13] = target: MAP kinase-activated protein kinase 2 (Homo sapiens) (UniProt P49137); experiment: Inhibition of human MAPKAPK2 assessed as residual activity at 30 uM relative to control
[14] = target: RAC-alpha serine/threonine-protein kinase (Homo sapiens) (UniProt P31749); experiment: Inhibition of human PKBalpha assessed as residual activity at 30 uM relative to control
[15] = target: Casein kinase I (Homo sapiens) (UniProt Q9HCP0+P78368+P48730+P49674+P48729); experiment: Inhibition of CK1 (unknown origin) assessed as residual activity at 30 uM relative to control; type: protein assay
[16] = target: Dual specificity tyrosine-phosphorylation-regulated kinase 3 (Homo sapiens) (UniProt O43781); experiment: Inhibition of human DYRK3 assessed as residual activity at 30 uM relative to control
[17] = target: Epidermal growth factor receptor (Homo sapiens) (UniProt P00533); experiment: Inhibition of human EGFR assessed as residual activity at 30 uM relative to control
[18] = target: Ephrin type-A receptor 2 (Homo sapiens) (UniProt P29317); experiment: Inhibition of human EPHA2 assessed as residual activity at 30 uM relative to control
[19] = target: Proto-oncogene tyrosine-protein kinase Src (Homo sapiens) (UniProt P12931); experiment: Inhibition of human Src (1 to 530 residues) assessed as residual activity at 30 uM relative to control
[20] = Volume of distribution at steady state in Sprague-Dawley rat at 1 mg/kg, iv measured for 24 hrs by LC-MS/MS analysis; type: ADME, organism-based; settings: in vivo, read-out: Vdss
[21] = Clearance in Sprague-Dawley rat at 1 mg/kg, iv measured for 24 hrs by LC-MS/MS analysis; type: ADME, organism-based; settings: in vivo
[22] = Clearance in beagle dog at 0.2 mg/kg, iv measured for 24 hrs by LC-MS/MS analysis; type: ADME, organism-based, Canis lupus familiaris; settings: in vivo
Rattus norvegicus [23] = experiment: Antiarthritic activity in adjuvant-induced arthritis rat model assessed as clinical score at 30 mg/kg, po administered twice a day for 14 days starting from day 13 to 27 post immunization and measured every 3 days a week; type: functional; settings: time 14 day
Rattus norvegicus [24] = experiment: Antiarthritic activity in adjuvant-induced arthritis rat model assessed as reduction in paw volume at 1 mg/kg, po administered twice a day for 14 days starting from day 13 to 27 post immunization and measured every 3 days a week; type: functional; settings: time 14 day
Rattus norvegicus [25] = experiment: Antiarthritic activity in adjuvant-induced arthritis rat model assessed as recovery of body weight at 1 to 30 mg/kg, po administered twice a day for 14 days starting from day 13 to 27 post immunization and measured every 3 days a week; type: functional, organism-based; settings: dose 1-30 mg/kg, time 14.0 day
[26] = Toxicity in rat assessed as reduction in food intake at 10 mg/kg/day, po administered via gavage once a day pretreated for 9 weeks prior to co-cage and measured on day 74; type: organism-based; parameters: scale not given: the % may be the effect or the level left; settings: in vivo, 1776 h, time 74 day
in vivo = settings: beagle, dog, po, 5 mg/kg

Mitogen-activated protein kinase 8 (Homo sapiens), sequence (P45983 whole entry): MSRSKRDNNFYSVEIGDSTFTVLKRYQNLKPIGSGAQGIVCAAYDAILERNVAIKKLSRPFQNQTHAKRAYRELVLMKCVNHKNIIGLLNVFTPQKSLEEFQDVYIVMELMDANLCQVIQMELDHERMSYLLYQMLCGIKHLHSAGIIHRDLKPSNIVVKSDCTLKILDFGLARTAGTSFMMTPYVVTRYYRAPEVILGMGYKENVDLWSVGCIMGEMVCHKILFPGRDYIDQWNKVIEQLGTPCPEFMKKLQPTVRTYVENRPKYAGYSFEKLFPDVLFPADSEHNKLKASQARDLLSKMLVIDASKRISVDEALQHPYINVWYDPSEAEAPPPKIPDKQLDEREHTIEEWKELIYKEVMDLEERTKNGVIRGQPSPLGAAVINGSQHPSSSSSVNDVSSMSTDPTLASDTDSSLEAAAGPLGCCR
Receptor-type tyrosine-protein kinase FLT3 (Homo sapiens), sequence (P36888 whole entry): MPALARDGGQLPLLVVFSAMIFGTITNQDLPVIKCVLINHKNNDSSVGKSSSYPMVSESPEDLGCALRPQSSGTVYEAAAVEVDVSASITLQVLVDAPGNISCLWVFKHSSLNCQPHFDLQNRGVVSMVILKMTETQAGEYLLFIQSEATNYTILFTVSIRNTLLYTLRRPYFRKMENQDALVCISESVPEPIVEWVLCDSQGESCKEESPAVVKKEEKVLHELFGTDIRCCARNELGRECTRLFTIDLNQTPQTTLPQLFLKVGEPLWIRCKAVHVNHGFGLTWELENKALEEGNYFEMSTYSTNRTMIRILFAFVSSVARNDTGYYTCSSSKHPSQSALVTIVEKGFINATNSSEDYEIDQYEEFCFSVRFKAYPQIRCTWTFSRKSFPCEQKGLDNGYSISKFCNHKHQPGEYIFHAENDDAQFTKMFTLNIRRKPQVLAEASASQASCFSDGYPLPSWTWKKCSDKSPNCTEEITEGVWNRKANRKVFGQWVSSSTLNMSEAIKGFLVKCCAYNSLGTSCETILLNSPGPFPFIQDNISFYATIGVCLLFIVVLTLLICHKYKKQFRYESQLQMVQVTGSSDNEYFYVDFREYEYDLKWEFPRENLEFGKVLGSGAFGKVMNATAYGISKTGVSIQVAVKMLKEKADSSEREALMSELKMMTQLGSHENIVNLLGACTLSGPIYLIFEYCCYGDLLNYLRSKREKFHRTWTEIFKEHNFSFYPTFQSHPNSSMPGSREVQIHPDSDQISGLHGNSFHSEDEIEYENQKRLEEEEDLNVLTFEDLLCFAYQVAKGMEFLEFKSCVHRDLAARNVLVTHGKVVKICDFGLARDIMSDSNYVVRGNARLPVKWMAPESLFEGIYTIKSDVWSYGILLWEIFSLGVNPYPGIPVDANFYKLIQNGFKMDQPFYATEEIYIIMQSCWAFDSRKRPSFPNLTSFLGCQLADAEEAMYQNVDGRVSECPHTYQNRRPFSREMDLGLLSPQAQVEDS
Proto-oncogene tyrosine-protein kinase Src (Homo sapiens), sequence (P12931 2-536 limits assumed): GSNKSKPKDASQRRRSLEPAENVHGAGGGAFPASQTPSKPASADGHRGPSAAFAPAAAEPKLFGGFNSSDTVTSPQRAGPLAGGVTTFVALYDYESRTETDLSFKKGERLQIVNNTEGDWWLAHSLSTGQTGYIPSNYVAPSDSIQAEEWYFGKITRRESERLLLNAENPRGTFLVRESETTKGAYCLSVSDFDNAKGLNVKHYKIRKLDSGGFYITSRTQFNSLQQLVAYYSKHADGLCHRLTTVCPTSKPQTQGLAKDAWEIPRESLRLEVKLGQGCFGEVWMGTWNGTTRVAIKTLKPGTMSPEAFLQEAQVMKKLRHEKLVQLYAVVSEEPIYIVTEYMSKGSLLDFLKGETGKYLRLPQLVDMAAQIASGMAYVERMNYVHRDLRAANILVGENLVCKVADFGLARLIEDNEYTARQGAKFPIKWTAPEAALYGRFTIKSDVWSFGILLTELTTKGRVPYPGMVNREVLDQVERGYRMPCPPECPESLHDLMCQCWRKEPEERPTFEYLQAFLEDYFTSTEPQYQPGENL
Cytoplasmic tyrosine-protein kinase BMX (Homo sapiens), sequence (P51813 whole entry): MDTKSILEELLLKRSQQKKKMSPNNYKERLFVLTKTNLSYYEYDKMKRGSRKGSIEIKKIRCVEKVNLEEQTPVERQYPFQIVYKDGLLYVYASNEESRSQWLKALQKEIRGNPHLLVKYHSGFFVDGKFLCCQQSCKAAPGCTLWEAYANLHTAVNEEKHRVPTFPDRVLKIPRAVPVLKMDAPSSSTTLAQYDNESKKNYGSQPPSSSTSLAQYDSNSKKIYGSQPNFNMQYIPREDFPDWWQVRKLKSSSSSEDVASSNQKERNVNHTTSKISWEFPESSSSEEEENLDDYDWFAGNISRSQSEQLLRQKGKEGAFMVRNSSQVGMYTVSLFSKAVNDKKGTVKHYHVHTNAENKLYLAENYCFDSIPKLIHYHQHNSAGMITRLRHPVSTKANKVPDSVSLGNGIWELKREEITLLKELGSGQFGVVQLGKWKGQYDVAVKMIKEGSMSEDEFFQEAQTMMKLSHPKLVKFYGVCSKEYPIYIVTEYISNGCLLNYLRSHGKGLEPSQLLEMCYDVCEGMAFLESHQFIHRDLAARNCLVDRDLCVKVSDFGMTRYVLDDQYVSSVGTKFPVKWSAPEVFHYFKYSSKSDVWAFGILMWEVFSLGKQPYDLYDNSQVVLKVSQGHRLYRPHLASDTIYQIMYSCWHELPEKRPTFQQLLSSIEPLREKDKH
Dual specificity tyrosine-phosphorylation-regulated kinase 3 (Homo sapiens), sequence (O43781 whole entry): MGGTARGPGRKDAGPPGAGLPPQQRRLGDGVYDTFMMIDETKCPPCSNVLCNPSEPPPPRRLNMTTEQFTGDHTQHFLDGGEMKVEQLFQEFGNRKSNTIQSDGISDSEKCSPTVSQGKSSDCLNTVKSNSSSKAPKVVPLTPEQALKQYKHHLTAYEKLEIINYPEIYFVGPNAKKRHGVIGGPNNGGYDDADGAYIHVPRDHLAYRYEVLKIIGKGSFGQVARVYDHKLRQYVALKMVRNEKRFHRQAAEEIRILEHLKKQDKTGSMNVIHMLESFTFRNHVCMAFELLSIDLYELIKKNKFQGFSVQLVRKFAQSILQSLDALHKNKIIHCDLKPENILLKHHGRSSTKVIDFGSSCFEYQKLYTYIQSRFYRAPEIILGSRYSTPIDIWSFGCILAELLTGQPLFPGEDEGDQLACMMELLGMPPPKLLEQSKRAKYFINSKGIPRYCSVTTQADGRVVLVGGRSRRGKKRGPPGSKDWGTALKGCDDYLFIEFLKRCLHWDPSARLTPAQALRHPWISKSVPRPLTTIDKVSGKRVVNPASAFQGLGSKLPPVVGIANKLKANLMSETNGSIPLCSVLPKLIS
RAC-alpha serine/threonine-protein kinase (Homo sapiens), sequence (P31749 whole entry): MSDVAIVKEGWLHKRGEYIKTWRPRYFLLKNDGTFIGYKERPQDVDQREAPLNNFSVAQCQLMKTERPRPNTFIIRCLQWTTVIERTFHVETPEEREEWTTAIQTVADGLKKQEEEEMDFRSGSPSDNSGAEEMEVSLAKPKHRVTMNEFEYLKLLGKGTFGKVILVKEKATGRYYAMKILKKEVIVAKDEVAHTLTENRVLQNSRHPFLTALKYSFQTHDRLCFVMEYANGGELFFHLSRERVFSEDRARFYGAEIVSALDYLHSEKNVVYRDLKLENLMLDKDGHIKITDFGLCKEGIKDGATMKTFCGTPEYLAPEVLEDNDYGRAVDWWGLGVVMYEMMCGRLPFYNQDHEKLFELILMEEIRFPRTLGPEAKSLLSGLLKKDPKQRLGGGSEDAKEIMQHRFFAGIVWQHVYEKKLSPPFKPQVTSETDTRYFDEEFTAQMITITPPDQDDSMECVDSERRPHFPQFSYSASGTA
Ephrin type-A receptor 2 (Homo sapiens), sequence (P29317 whole entry, the tested form may be a part): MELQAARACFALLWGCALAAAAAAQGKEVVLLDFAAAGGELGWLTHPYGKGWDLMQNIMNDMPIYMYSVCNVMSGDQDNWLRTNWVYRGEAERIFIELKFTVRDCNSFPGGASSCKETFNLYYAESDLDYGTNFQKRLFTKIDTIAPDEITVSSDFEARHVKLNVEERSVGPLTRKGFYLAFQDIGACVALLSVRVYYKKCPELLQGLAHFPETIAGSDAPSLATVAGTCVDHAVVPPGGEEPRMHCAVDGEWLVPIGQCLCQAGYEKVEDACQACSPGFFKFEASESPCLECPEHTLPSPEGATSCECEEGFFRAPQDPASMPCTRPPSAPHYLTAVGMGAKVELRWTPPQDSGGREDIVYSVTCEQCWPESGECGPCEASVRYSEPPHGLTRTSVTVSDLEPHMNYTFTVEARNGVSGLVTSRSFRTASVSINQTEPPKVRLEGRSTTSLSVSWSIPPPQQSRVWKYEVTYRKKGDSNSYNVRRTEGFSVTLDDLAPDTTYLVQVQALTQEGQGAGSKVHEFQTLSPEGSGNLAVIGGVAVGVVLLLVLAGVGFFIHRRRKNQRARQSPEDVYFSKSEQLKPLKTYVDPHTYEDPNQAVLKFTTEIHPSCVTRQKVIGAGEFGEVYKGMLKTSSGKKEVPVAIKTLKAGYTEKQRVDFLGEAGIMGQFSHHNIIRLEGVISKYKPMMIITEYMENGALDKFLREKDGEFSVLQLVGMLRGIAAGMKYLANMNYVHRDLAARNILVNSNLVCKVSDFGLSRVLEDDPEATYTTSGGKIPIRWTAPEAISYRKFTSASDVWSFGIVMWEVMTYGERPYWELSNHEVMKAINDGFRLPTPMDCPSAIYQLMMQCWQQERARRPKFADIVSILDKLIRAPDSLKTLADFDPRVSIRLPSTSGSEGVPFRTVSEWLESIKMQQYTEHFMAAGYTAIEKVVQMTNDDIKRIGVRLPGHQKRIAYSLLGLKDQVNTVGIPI
Mitogen-activated protein kinase 1 (Homo sapiens), sequence (P28482 whole entry): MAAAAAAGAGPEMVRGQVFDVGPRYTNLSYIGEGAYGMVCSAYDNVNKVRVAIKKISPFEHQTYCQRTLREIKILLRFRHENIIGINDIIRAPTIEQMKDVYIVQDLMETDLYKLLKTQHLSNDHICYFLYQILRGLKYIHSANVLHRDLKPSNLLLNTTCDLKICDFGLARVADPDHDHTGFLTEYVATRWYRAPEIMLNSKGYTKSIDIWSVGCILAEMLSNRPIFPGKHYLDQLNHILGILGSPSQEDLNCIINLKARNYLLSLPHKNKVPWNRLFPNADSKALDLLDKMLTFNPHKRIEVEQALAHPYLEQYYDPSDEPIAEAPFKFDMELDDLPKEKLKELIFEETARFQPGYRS

Q: Which Activity (Mus musculus [1]) does the source give for `O=C(Nc1nc2cccc(C3CCC4(CC3)CCN(C(=O)[C@@H]3CC3(F)F)CC4)n2n1)C1CC1` here?
A: 88%

Q: Which results are given for `O=C(Nc1nc2cccc(C3CCC4(CC3)CN(C(=O)[C@@H]3CC3(F)F)C4)n2n1)C1CC1`?
A: inhibition in vivo at 15 mg/kg (Mus musculus [2]): 59.9%; Activity [3]: 99%; Activity [4]: 34%; Activity [5]: 93%; Activity [6]: 106%; Activity [7]: 88%; Activity (Homo sapiens): 109%; Activity [8]: 66%; Activity [9]: 99%; Activity [10]: 109%; Activity [11]: 104%; Activity [12]: 104%; Activity [13]: 112%; Activity [14]: 104%; Activity [15]: 102%; Activity [16]: 95%; Activity [17]: 94%; Activity [18]: 102%; Activity [19]: 86%; Vd [20]: 1.81 L/kg; clearance [21]: 10.5 mL/min/kg; clearance [22]: 5.73 mL/min/kg; Activity (Rattus norvegicus [23]): 2.7; Activity (Rattus norvegicus [24]): 1.91 mL; Activity (Rattus norvegicus [25]): Active; Activity [26]: 6.1%; bioavailability at 24 h (in vivo): 106%
